Tests used:
[1] = Cytotoxicity determination in HepG2.2.15 cells (CCK-8 cell viability); type: cell-based; conditions: human, 6 days treatment, CCK-8 assay, highest concentration 100 uM
Description: (§1) HepG2.2.15 (the HepG2.2.15 cell line can be produced by transfection of the HepG2 cell line as described in Sells, Chen, and Acs 1987 (Proc. Natl. Acad. Sci. USA 84: 1005-1009), and the HepG2 cell line is available from ATCC® under number HIB-8065™)
(§2) HepG2.2.15 cells were plated into 96-well plate in 2% FBS culture medium at the density of 40,000 cells/well and 5,000 cells/well for HBV inhibitory activity and cytotoxicity determination, respectively. After incubation at 37° C., 5% CO2 overnight, cells were treated with medium containing compounds for 6 days with medium and compounds refreshed after 3 days of treatment. Each compound was tested in a 1:3 serial dilutions at 8 different concentrations in triplicate. The highest concentration of the compounds was 10 uM or 1 uM for anti-HBV activity assay and 100 uM for cytotoxicity determination.
Cell viability was determined by CCK-8 assay. After 6 days of compounds treatment, 20 μl CCK-8 reagents were added to each well of cytotoxicity assay plates. Cell plates were incubated at 37° C., 5% CO2 for 2.5 h. The absorbance at 450 nm wavelength and the absorbance at 630 nm wavelength as reference was measured.
(§3) 2) DATA Analysis EC50 and CC50 values are calculated by the GRAPTIPAD PRISM software.

HBV = assay: Anti-HBV activity in HepG2.2.15 cells (HBV DNA in culture medium by qPCR); type: cell-based; conditions: Hepatitis B virus, HepG2.2.15, 144 h, HepG2.2.15 cells, 6 days treatment, HBV DNA in culture medium quantified by real-time PCR; read-out: EC50
Description: Example 2: Anti-Viral Assay in HepG2.2.15 Cells
as §1, §2
The change of HBV DNA level induced by the compounds was assessed by quantitative real-time polymerase chain reaction (qPCR). Briefly, the HBV DNA in the culture medium was extracted using QIAamp 96 DNA Blood Kit according to the manual and then quantified by real-time PCR assay using the primers and probe in the table 2 below.
as §3

| SMILES | CC50 at 6 days [1] [nM] | EC50 (HBV) [nM] |
| --- | --- | --- |
| CCOC(=O)C1=C(CN2CC(F)(F)[C@H]3[C@@H]2CCN3CC(C)(C)C(=O)O)NC(c2nccs2)=N[C@H]1c1cccc(F)c1C (relative stereo) [Compound 1A, 3-(4-(((S)-5-(ethoxycarbonyl)-6-(3-fluoro-2-methylphenyl)-2-(thiazol-2-yl)-3,6-dihydropyrimidin-4-yl)methyl)-6,6-difluorohexahydropyrrolo[3,2-b]pyrrol-1(2H)-yl)-2,2-dimethylpropanoic acid] | 15000 | 1.3 |
| CCOC(=O)C1=C(CN2CC[C@]3(F)C(=O)N(CC(C)(C)C(=O)O)C[C@H]23)NC(c2nccs2)=N[C@H]1c1cccc(F)c1C (relative stereo) [Compound 3B, 3-(1-(((S)-5-(ethoxycarbonyl)-6-(3-fluoro-2-methylphenyl)-2-(thiazol-2-yl)-3,6-dihydropyrimidin-4-yl)methyl)-3a-fluoro-4-oxohexahydropyrrolo[3,4-b]pyrrol-5(1H)-yl)-2,2-dimethylpropanoic acid] | 51800 | 38.7 |
| CCOC(=O)C1=C(CN2CC[C@H]3C(=O)N(CC(C)(C)C(=O)O)C(=O)[C@H]32)NC(c2nccs2)=N[C@H]1c1cccc(F)c1C (relative stereo) [Compound 4A, 3-(1-(((S)-5-(ethoxycarbonyl)-6-(3-fluoro-2-methylphenyl)-2-(thiazol-2-yl)-3,6-dihydropyrimidin-4-yl)methyl)-4,6-dioxohexahydropyrrolo[3,4-b]pyrrol-5(1H)-yl)-2,2-dimethylpropanoic acid] | 32600 | 6.3 |
| CCOC(=O)C1=C(CN2CC(F)(F)[C@@H]3C(=O)N(CC(C)(C)C(=O)O)C[C@@H]32)NC(c2nccs2)=N[C@H]1c1cccc(F)c1C (relative stereo) [Compound 5A, 3-(1-(((S)-5-(ethoxycarbonyl)-6-(3-fluoro-2-methylphenyl)-2-(thiazol-2-yl)-3,6-dihydropyrimidin-4-yl)methyl)-3,3-difluoro-4-oxohexahydropyrrolo[3,4-b]pyrrol-5(1H)-yl)-2,2-dimethylpropanoic acid] | 70400 | 8.2 |
| CCOC(=O)C1=C(CN2CC(F)(F)[C@H]3[C@@H]2CCN3CC2(C(=O)O)CC2)NC(c2nccs2)=N[C@H]1c1cccc(F)c1C (relative stereo) [Compound 38A, 1-((4-(((S)-5-(ethoxycarbonyl)-6-(3-fluoro-2-methylphenyl)-2-(thiazol-2-yl)-3,6-dihydropyrimidin-4-yl)methyl)-6,6-difluorohexahydropyrrolo[3,2-b]pyrrol-1(2H)-yl)methyl)cyclopropane-1-carboxylic acid] | 20000 | 1.5 |
| CCOC(=O)C1=C(CN2CC(F)(F)[C@H]3[C@@H]2CCN3C2CC(C(=O)O)C2)NC(c2nccs2)=N[C@H]1c1cccc(F)c1C (relative stereo) [Compound 39A, 3-(4-(((S)-5-(ethoxycarbonyl)-6-(3-fluoro-2-methylphenyl)-2-(thiazol-2-yl)-3,6-dihydropyrimidin-4-yl)methyl)-6,6-difluorohexahydropyrrolo[3,2-b]pyrrol-1(2H)-yl)cyclobutane-1-carboxylic acid] | 35000 | 2.4 |
| CCOC(=O)C1=C(CN2CC(F)(F)[C@H]3[C@@H]2CCN3CC2(CC(=O)O)CC2)NC(c2nccs2)=N[C@H]1c1cccc(F)c1C (relative stereo) [Compound 49, 2-(1-((4-(((S)-5-(ethoxycarbonyl)-6-(3-fluoro-2-methylphenyl)-2-(thiazol-2-yl)-3,6-dihydropyrimidin-4-yl)methyl)-6,6-difluorohexahydropyrrolo[3,2-b]pyrrol-1(2H)-yl)methyl)cyclopropyl)-acetic acid] | 25500 | 32.6 |
| CCOC(=O)C1=C(CN2CC(F)(F)[C@@H]3[C@H]2CN(C)N3CCC(C)(C)C(=O)O)NC(c2nccs2)=N[C@H]1c1cccc(F)c1C (relative stereo) [Compound 68A, 4-(4-(((S)-5-(ethoxycarbonyl)-6-(3-fluoro-2-methylphenyl)-2-(thiazol-2-yl)-3,6-dihydropyrimidin-4-yl)methyl)-6,6-difluoro-2-methylhexahydropyrrolo[3,2-c]pyrazol-1(2H)-yl)-2,2-dimethylbutanoic acid] | 22200 | 7.4 |
| CCOC(=O)C1=C(CN2CC(F)(F)[C@@H]3[C@H]2CON3CCC(C)(C)C(=O)O)NC(c2nccs2)=N[C@H]1c1cccc(F)c1C (relative stereo) [Compound 69A, 4-(4-(((S)-5-(ethoxycarbonyl)-6-(3-fluoro-2-methylphenyl)-2-(thiazol-2-yl)-3,6-dihydropyrimidin-4-yl)methyl)-6,6-difluorohexahydro-1H-pyrrolo[3,2-c]isoxazol-1-yl)-2,2-dimethylbutanoic acid] | 37000 | 0.7 |
| CCOC(=O)C1=C(CN2CC(F)(F)[C@H]3[C@@H]2CN(CC(C)(C)C(=O)O)N3C)NC(c2nccs2)=N[C@H]1c1cccc(F)c1C (relative stereo) [Compound 87, 3-((cis)-4-(((S)-5-(ethoxycarbonyl)-6-(3-fluoro-2-methylphenyl)-2-(thiazol-2-yl)-3,6-dihydropyrimidin-4-yl)methyl)-6,6-difluoro-1-methylhexahydropyrrolo[3,2-c]pyrazol-2(1H)-yl)-2,2-dimethylpropanoic acid] | > 50000 | 14 |
| CCOC(=O)C1=C(CN2CC(F)(F)[C@H]3[C@@H]2CCN3CCC(C)(C)C(=O)O)NC(c2ncoc2C)=N[C@@H]1c1cccc(F)c1C (relative stereo) [Compound 107, 4-(4-((5-(ethoxycarbonyl)-6-(3-fluoro-2-methylphenyl)-2-(5-methyloxazol-4-yl)-3,6-dihydropyrimidin-4-yl)methyl)-6,6-difluorohexahydropyrrolo[3,2-b]pyrrol-1(2H)-yl)-2,2-dimethylbutanoic acid] | 42500 | 11.3 |
| CCOC(=O)C1=C(CN2CC(F)(F)[C@H]3[C@@H]2CCN3CC[C@H]2C[C@@H]2C(=O)O)NC(c2nccs2)=N[C@H]1c1cccc(F)c1C (relative stereo) [Compound 110, (trans)-2-(2-((cis)-4-(((S)-5-(ethoxycarbonyl)-6-(3-fluoro-2-methylphenyl)-2-(thiazol-2-yl)-3,6-dihydropyrimidin-4-yl)methyl)-6,6-difluorohexahydropyrrolo[3,2-b]pyrrol-1(2H)-yl)ethyl)cyclopropane-1-carboxylic acid] | 23500 | 0.6 |
| CCOC(=O)C1=C(CN2CC(F)(F)[C@H]3[C@@H]2CCN3CCC(C)(C)C(=O)O)NC(c2nccs2)=N[C@@H]1c1ccc(F)nc1C (relative stereo) [Compound 121, 4-((cis)-4-(((R)-5-(ethoxycarbonyl)-6-(6-fluoro-2-methylpyridin-3-yl)-2-(thiazol-2-yl)-3,6-dihydropyrimidin-4-yl)methyl)-6,6-difluorohexahydropyrrolo[3,2-b]pyrrol-1(2H)-yl)-2,2-dimethylbutanoic acid] | > 100000 | 8.7 |
| CCOC(=O)C1=C(CN2CC(F)(F)[C@@H]3[C@H]2CCN3CC(=O)O)NC(c2nccs2)=N[C@H]1c1cccc(F)c1C (single isomer, unassigned) [Compound 6A] | 30400 | 3.6 |
| CCOC(=O)C1=C(CN2CC(F)(F)[C@H]3[C@@H]2CCN3CC(=O)O)NC(c2nccs2)=N[C@H]1c1cccc(F)c1C (single isomer, unassigned) [Compound 6B] | 34700 | 382 |
| CCOC(=O)C1=C(CN2CC(F)(F)[C@H]3[C@@H]2CCN3CC(=O)NS(C)(=O)=O)NC(c2nccs2)=N[C@H]1c1cccc(F)c1C (single isomer, unassigned) [Compound 8A] | 36300 | 6.9 |
| CCOC(=O)C1=C(CN2CC(F)(F)[C@@H]3CN(C(=O)C(C)(C)C(=O)O)C[C@@H]32)NC(c2nccs2)=N[C@H]1c1cccc(F)c1C (single isomer, unassigned) [Compound 9A] | 57800 | 11.1 |
| CCOC(=O)C1=C(CN2CC(F)(F)[C@@H]3CN(C(=O)C4(C(=O)O)CC4)C[C@@H]32)NC(c2nccs2)=N[C@H]1c1cccc(F)c1C (single isomer, unassigned) [Compound 10] | 69600 | 80.5 |
| CCOC(=O)C1=C(CN2C[C@H](F)[C@H]3[C@@H]2CCN3CC(C)(C)C(=O)O)NC(c2nccs2)=N[C@H]1c1cccc(F)c1C (single isomer, unassigned) [Compound 11B] | 30000 | 31.4 |
| CCOC(=O)C1=C(CN2CC(F)(F)[C@@H]3CN(CC(C)(C)C(=O)O)C[C@@H]32)NC(c2nccs2)=N[C@H]1c1cccc(F)c1C (single isomer, unassigned) [Compound 12B] | 86100 | 8.2 |
| CCOC(=O)C1=C(CN2CC(F)(F)[C@@H]3CN(CC(C)(C)C(=O)O)C(=O)[C@@H]32)NC(c2nccs2)=N[C@H]1c1cccc(F)c1C (single isomer, unassigned) [Compound 13B] | 38600 | 3.5 |

Reference: US20230083012A1, “DIHYDROPYRIMIDINE DERIVATIVES AND USES THEREOF IN THE TREATMENT OF HBV INFECTION OR OF HBV-INDUCED DISEASES” (priority 2019, published 2023)
